Results: patent publication US20070142412A1, “Crystalline form of 2-{4-['3-(4-chloro-2-fluorophenyl)-4-pyrimidin-4-yl-1h-pyrazol-5-yl]piperidin-1-yl}-2-oxoethanol” (priority 2003, published 2007)

Assay: Moisture sorption analysis (DVS) followed by PXRD
Format: physicochemical
Details: 25° C.
Procedure: The moisture sorption profile of the sample was determined using a Surface Measurement System (SMS) DVS-1 Automated Water Sorption Analyzer operating via SMS Software version 2.16. The change in mass of the sample versus relative humidity (RH) was monitored at 25° C. using a method from 30% to 0%, 0% to 90%, 90% to 0%, and 0% to 30% RH in 10% RH steps with dm/dt=3×10^−4. Maximum hold time per step was 4 hours. An approximately 15 mg sample was loaded onto the sample holder. The balance was calibrated with a 100 mg standard weight at 25° C. HPLC-grade water was used for the study. It is believed that about 0.5% water is believed to be surface bound moisture. To investigate the hydration state of the Form 1 hydrate, moisture sorption analysis was performed. At the conclusion of the study, the sample was removed from the moisture sorption balance and analyzed by PXRD. […] Constant mass was not obtained at 0% RH in the moisture sorption study; therefore, an additional moisture sorption study was conducted with increase maximum hold time per step to allow the sample to reach equilibrium over the low RH range. […] This theory is in no way to be construed as limiting.

Change in PXRD diffraction pattern after moisture sorption analysis (cycled 30% to 0%, 0% to 90%, 90% to 0%, 0% to 30% RH in 10% RH steps): No change was observed
Water content indicated by moisture sorption data (at least 0.5% thought to be surface bound moisture): approximately 5.5%
SMILES: O=C(CO)N1CCC(c2[nH]nc(-c3ccc(Cl)cc3F)c2-c2ccncn2)CC1 [Form 1 hydrate, 2-{4-[3-(4-chloro-2-fluorophenyl)-4-pyrimidin-4-yl-1H-pyrazol-5-yl]piperidin-1-yl}-2-oxoethanol]
